Patent US11498899B2, “Nitrone herbicides” (FMC Corporation, priority 2016, dated 2022)

Assays:
[1] = test system: barnyardgrass (Echinochloa crus-galli); experiment: Test A preemergence, visual injury rating 0-100 (0 no effect, 100 complete control); assay type: in vivo; conditions: for Barnyardgrass plant response rating (0 to 100 scale): 125 g ai/ha
[2] = test system: foxtail, green (green foxtail, Setaria viridis); experiment: Test A preemergence, visual injury rating 0-100; assay type: in vivo
kochia (Kochia scoparia) [3] = experiment: Test A preemergence, visual injury rating 0-100; assay type: in vivo
[4] = test system: pigweed (Amaranthus retroflexus); experiment: Test A preemergence, visual injury rating 0-100; assay type: in vivo
[5] = test system: ragweed (common ragweed, Ambrosia elatior); experiment: Test A preemergence, visual injury rating 0-100; assay type: in vivo
[6] = test system: ryegrass, Italian (Italian ryegrass, Lolium multiflorum); experiment: Test A preemergence, visual injury rating 0-100; assay type: in vivo
[7] = test system: barnyardgrass (Echinochloa crus-galli); experiment: Test A postemergence, visual injury rating 0-100; assay type: in vivo; conditions: 0 to 100 scale
[8] = test system: blackgrass (Alopecurus myosuroides); experiment: Test A postemergence, visual injury rating 0-100; assay type: in vivo; conditions: 0 to 100 scale
corn (Zea mays) = experiment: Test A postemergence, visual injury rating 0-100; assay type: in vivo; conditions: 0 to 100 scale
[9] = test system: foxtail, green (green foxtail, Setaria viridis); experiment: Test A postemergence, visual injury rating 0-100; assay type: in vivo; conditions: 0 to 100 scale
[10] = test system: galium (catchweed bedstraw, Galium aparine); experiment: Test A postemergence, visual injury rating 0-100; assay type: in vivo; conditions: 0 to 100 scale
kochia (Kochia scoparia) [11] = experiment: Test A postemergence, visual injury rating 0-100; assay type: in vivo; conditions: 0 to 100 scale
[12] = test system: pigweed (Amaranthus retroflexus); experiment: Test A postemergence, visual injury rating 0-100; assay type: in vivo; conditions: 0 to 100 scale
[13] = test system: ragweed (common ragweed, Ambrosia elatior); experiment: Test A postemergence, visual injury rating 0-100; assay type: in vivo; conditions: 0 to 100 scale
[14] = test system: ryegrass, Italian (Italian ryegrass, Lolium multiflorum); experiment: Test A postemergence, visual injury rating 0-100; assay type: in vivo; conditions: 0 to 100 scale
[15] = test system: wheat (Triticum aestivum); experiment: Test A postemergence, visual injury rating 0-100; assay type: in vivo; conditions: 0 to 100 scale
[16] = test system: ducksalad (Heteranthera limosa); experiment: Test B flooded paddy test, visual rating 0-100; conditions: Flood, 250 g ai/ha, applied to paddy water, rated after 13 to 15 days
[17] = test system: barnyardgrass (Echinochloa crus-galli); experiment: Test B flooded paddy test, visual rating 0-100; conditions: Flood, 250 g ai/ha, applied to paddy water, rated after 13 to 15 days
rice (Oryza sativa) = experiment: Test B flooded paddy test, visual rating 0-100 (0 no effect, 100 complete control); conditions: Flood, 250 g ai/ha, applied to paddy water, rated after 13 to 15 days
[18] = 31 g ai/ha, 0 to 100 scale (0 no effect, 100 complete control), approx. 10 days

| SMILES | Barnyardgrass plant response rating (0 to 100 scale) [1] | Foxtail, Green plant response rating (0 to 100 scale) ([2]; 125 g ai/ha) | Kochia plant response rating (0 to 100 scale) (kochia (Kochia scoparia) [3]; 125 g ai/ha) | Pigweed plant response rating (0 to 100 scale) ([4]; 125 g ai/ha) | Ragweed plant response rating (0 to 100 scale) ([5]; 125 g ai/ha) | Ryegrass, Italian plant response rating (0 to 100 scale) ([6]; 125 g ai/ha) | Barnyardgrass plant response rating ([7]; 125 g ai/ha) | Blackgrass plant response rating ([8]; 125 g ai/ha) | Corn plant response rating (corn (Zea mays); 125 g ai/ha) | Foxtail, Green plant response rating ([9]; 125 g ai/ha) | Galium plant response rating ([10]; 125 g ai/ha) | Kochia plant response rating (kochia (Kochia scoparia) [11]; 125 g ai/ha) | Pigweed plant response rating ([12]; 125 g ai/ha) | Ragweed plant response rating ([13]; 125 g ai/ha) | Ryegrass, Italian plant response rating ([14]; 125 g ai/ha) | Wheat plant response rating ([15]; 125 g ai/ha) | Ducksalad plant response rating (0 to 100 scale) [16] | Barnyardgrass plant response rating (0 to 100 scale) [17] | Rice plant response rating (0 to 100 scale) (rice (Oryza sativa)) | Barnyardgrass plant response rating ([1]; 500 g ai/ha, 0 to 100 scale) | also measured |
| --- | --- | --- | --- | --- | --- | --- | --- | --- | --- | --- | --- | --- | --- | --- | --- | --- | --- | --- | --- | --- | --- |
| CC1=[N+]([O-])[C@H](C(=O)Nc2cccc(F)c2F)[C@@H](c2ccc(C(F)(F)F)cc2)C1 [Compound 30, (2S,3R)—N-(2,3-difluorophenyl)-3,4-dihydro-5-methyl-3-[4-(trifluoromethyl)phenyl]-2H-pyrrole-2-carboxamide 1-oxide] | 100 | 100 | 80 | 90 | 90 | 90 | 70 | 60 | 70 | 80 | 50 | 0 | 30 | 40 | 50 | 50 | 100 | 85 | 50 |  | Barnyardgrass plant response rating [1, 18]: 100; Foxtail, Green plant response rating [2, 18]: 100; Kochia plant response rating (kochia (Kochia scoparia) [3]; [18]): 0; Pigweed plant response rating [4, 18]: 0; Ragweed plant response rating [5, 18]: 30; Ryegrass, Italian plant response rating [6, 18]: 0; Barnyardgrass plant response rating ([7]; 31 g ai/ha): 30; Blackgrass plant response rating ([8]; 31 g ai/ha): 30; Corn plant response rating (corn (Zea mays); 31 g ai/ha): 0; Foxtail, Green plant response rating ([9]; 31 g ai/ha): 30; Galium plant response rating ([10]; 31 g ai/ha): 50; Kochia plant response rating (kochia (Kochia scoparia) [11]; 31 g ai/ha): 0; Pigweed plant response rating ([12]; 31 g ai/ha): 20; Ragweed plant response rating ([13]; 31 g ai/ha): 0; Ryegrass, Italian plant response rating ([14]; 31 g ai/ha): 20; Wheat plant response rating ([15]; 31 g ai/ha): 40; melting point: 113 to 117 °C |
| CC1=[N+]([O-])C(C(=O)Nc2ccccc2C#N)C(c2ccc(C(F)(F)F)cc2)C1 (racemic) [Compound 32] | 0 | 10 | 0 | 0 | 70 | 10 | 20 | 0 | 10 | 20 | 70 | 0 | 0 | 0 | 0 | 0 | 0 | 0 | 0 | 100 | Foxtail, Green plant response rating (0 to 100 scale) ([2]; 500 g ai/ha): 100; Kochia plant response rating (0 to 100 scale) (kochia (Kochia scoparia) [3]; 500 g ai/ha): 70; Pigweed plant response rating (0 to 100 scale) ([4]; 500 g ai/ha): 80; Ragweed plant response rating (0 to 100 scale) ([5]; 500 g ai/ha): 100; Ryegrass, Italian plant response rating (0 to 100 scale) ([6]; 500 g ai/ha): 10; Barnyardgrass plant response rating ([7]; 500 g ai/ha): 40; Blackgrass plant response rating ([8]; 500 g ai/ha): 20; Corn plant response rating (corn (Zea mays); 500 g ai/ha): 50; Foxtail, Green plant response rating ([9]; 500 g ai/ha): 50; Galium plant response rating ([10]; 500 g ai/ha): 80; Kochia plant response rating (kochia (Kochia scoparia) [11]; 500 g ai/ha): 20; Pigweed plant response rating ([12]; 500 g ai/ha): 20; Ragweed plant response rating ([13]; 500 g ai/ha): 20; Ryegrass, Italian plant response rating ([14]; 500 g ai/ha): 0; Wheat plant response rating ([15]; 500 g ai/ha): 0 |
| CC1=[N+]([O-])C(C(=O)Nc2cccc(F)n2)C(c2ccc(C(F)(F)F)cc2)C1 (racemic) [Compound 47] | 80 | 90 | 40 | 80 | 90 | 0 | 50 | 0 | 0 | 50 | 50 | 0 | 0 | 0 | 0 | 0 | 75 | 40 | 0 | 100 | Foxtail, Green plant response rating (0 to 100 scale) ([2]; 500 g ai/ha): 100; Kochia plant response rating (0 to 100 scale) (kochia (Kochia scoparia) [3]; 500 g ai/ha): 90; Pigweed plant response rating (0 to 100 scale) ([4]; 500 g ai/ha): 100; Ragweed plant response rating (0 to 100 scale) ([5]; 500 g ai/ha): 100; Ryegrass, Italian plant response rating (0 to 100 scale) ([6]; 500 g ai/ha): 20; Barnyardgrass plant response rating ([7]; 500 g ai/ha): 90; Blackgrass plant response rating ([8]; 500 g ai/ha): 0; Corn plant response rating (corn (Zea mays); 500 g ai/ha): 20; Foxtail, Green plant response rating ([9]; 500 g ai/ha): 90; Galium plant response rating ([10]; 500 g ai/ha): 30; Kochia plant response rating (kochia (Kochia scoparia) [11]; 500 g ai/ha): 0; Pigweed plant response rating ([12]; 500 g ai/ha): 20; Ragweed plant response rating ([13]; 500 g ai/ha): 40; Ryegrass, Italian plant response rating ([14]; 500 g ai/ha): 50; Wheat plant response rating ([15]; 500 g ai/ha): 0 |
| CC1=[N+]([O-])[C@@H](C(=O)Nc2ccccc2F)[C@H](c2ccc(C(F)(F)F)cc2)C1 (relative stereo) [Compound 26, trans-N-(2-fluorophenyl)-3,4-dihydro-5-methyl-3-[4-(trifluoromethyl)phenyl]-2H-pyrrole-2-carboxamide 1-oxide] | 80 | 100 | 50 | 70 | 80 | 20 | 60 | 20 | 0 | 50 | 70 | 0 | 30 | 20 | 0 | 0 | 100 | 60 | 0 | 100 | Foxtail, Green plant response rating ([2]; 500 g ai/ha, 0 to 100 scale): 100; Kochia plant response rating (kochia (Kochia scoparia) [3]; 500 g ai/ha, 0 to 100 scale): 90; Pigweed plant response rating ([4]; 500 g ai/ha, 0 to 100 scale): 90; Ragweed plant response rating ([5]; 500 g ai/ha, 0 to 100 scale): 90; Ryegrass, Italian plant response rating ([6]; 500 g ai/ha, 0 to 100 scale): 70; Barnyardgrass plant response rating ([7]; 500 g ai/ha): 90; Blackgrass plant response rating ([8]; 500 g ai/ha): 60; Corn plant response rating (corn (Zea mays); 500 g ai/ha): 0; Foxtail, Green plant response rating ([9]; 500 g ai/ha): 90; Galium plant response rating ([10]; 500 g ai/ha): 80; Kochia plant response rating (kochia (Kochia scoparia) [11]; 500 g ai/ha): 10; Pigweed plant response rating ([12]; 500 g ai/ha): 80; Ragweed plant response rating ([13]; 500 g ai/ha): 60; Ryegrass, Italian plant response rating ([14]; 500 g ai/ha): 20; Wheat plant response rating ([15]; 500 g ai/ha): 10 |
